“Also recorded” adds a separate entry of the source.
Key:
rats [1] = test: intravenous administration to rats (earlier work of the inventors); type: in vivo, rat; settings: i.v.
mice = settings: mouse, in vivo; cited from earlier work
[2] = system: Salmonella typhirmurium strains; settings: Salmonella typhimurium TA 98 and TA 100; cited from earlier work
hamsters [3] = settings: cited from earlier work
isolated mouse islets = test: glucose-stimulated insulin secretion from isolated mouse islets; type: cell-based; settings: for maximal stimulatory dose / glucose-stimulated insulin secretion: NMRI mouse islets; for glucose-stimulated insulin secretion: 16.7 mmol/l, 10^−9-10^−3 mol/l
Description: Islet from 6-10 NMRI mice were isolated and incubated in the presence of 16.7 mmol/l and 10^−9-10^−3 mol/l stevioside or 10^−9-10^−3 mol/l steviol. The results of these tests are illustrated in FIGS. 4a and 4b where each column represents mean±SEM from 24 incubations of single islets. Black bars in FIG. 4a indicate that stevioside is present and hatched bars indicate that stevioside is absent. Black bars in FIG. 4b indicate that steviol is present and hatched bars indicate that steviol is absent. The influence of the maximal stimulatory doses of 10^−3 mol/l stevioside and 10^−6 mol/l steviol was studied in NMRI mouse islets over a range between 0 and 16.7 mmol/l glucose. […] Black bars in FIG. 7a indicate that stevioside is present and hatched bars indicate that stevioside is absent. Black bars in FIG. 7b indicate that steviol is present and hatched bars indicate that steviol is absent.

rats [4] = settings: rat, in vivo; cited from earlier work
[5] = six in vitro and one in vivo mutagenicity assays; cited from earlier work
[6] = system: spontaneously hypertensive rats; settings: cited from earlier work
[7] = stevioside infusion at normal blood glucose; type: in vivo; settings: bolus or constant intravenous infusion
GK rats [8] = test: plasma glucagon during glucose tolerance test in GK rats; type: in vivo, rat; settings: stevioside 0.2 g/kg i.v. bolus, glucose 2.0 g/kg
Description: During a glucose tolerance test, an intravenous bolus of stevioside of 0.2 g/kg body weight was injected in GK rats (the (2)-(2) serie (n=6)). GK rats receiving 0.9% saline intravenously served as controls (the O-O serie (n=6)). Glucose 2.0 g/kg body weight was administered as a bolus at timepoint 0 min. The plasma glucagon responses are shown as mean±SEM in FIGS. 5a (control) and 5b (GK). The plasma glucagon was suppressed in the stevioside treated GK rat.

GK rats [9] = test: i.v. glucose tolerance test with stevioside in GK rats (plasma glucose and insulin); type: in vivo, rat; settings: 2.0 g glucose/kg + 0.2 g stevioside/kg i.v.
Description: In the following examples, the type II diabetic Goto-Kakizaki (GK) rats originated from Takeda Chemical Ind., Tokyo, Japan and were bred locally. As examples of the effects of a compound including the chemical formulas II, stevioside was tested on normal Wistar rats and on GK rats. 2.0 g glucose/kg body weight and 0.2 g stevioside/kg body weight were dissolved in 0.9% saline and infused intravenously. The plasma glucose and insulin levels were measured over a period of 2 hours. The results are shown in FIGS. 2a, 2b, 3a and 3b, were the O-O series (n=6 for Wistar and n=14 for GK) illustrate glucose infused alone and the (2)-(2) series (n=6 for Wistar and n=12 for GK) illustrate the combined glucose and stevioside infusion. Data are given as mean±SEM.

hamsters [10] = settings: doses as high as 2.5 g/kg body weight/day; cited from earlier work
[11] = system: isolated normal pancreatic rat islets; settings: 7 mmol/l D-glucose; stevioside 1.0 mmol/l; cited from earlier work
[12] = system: type II diabetic patients; test: acute paired cross-over test meal study with oral stevioside; type: in vivo, human; settings: 1 g stevioside orally with standard meal
Excerpt: Twelve type II diabetic patients (4 female/8 males) with a mean age of 65.8±1.6 years, a diabetes duration of 6.0±1.3 years, a mean body mass index of 28.5±1.0, and a mean glycated hemoglobin HbA1c of 7.4±0.4 percent were included in the study. The experiment was an acute, paired, cross-over study in which two test meals were served during the experiments (A: Standard meal supplemented with 1 g of stevioside given orally; B: Standard meal given together with 1 g of gelatine (placebo) given orally. The total energy content of the test meals was 1725 kJ (protein 16 E %, fat 30 E %, carbohydrate 54 E %). Blood samples were drawn from an antecubital vein 30 minutes before and 240 minutes after ingestion of the test meal. The arterial blood pressure was continuously monitored during the experiment. Students paired t-test was used for comparing the effects of stevioside with placebo on the parameters measured. Data are given as mean±SEM.

F344 rats = settings: cited from earlier work
GK-rats = test: four-week test diets (stevioside and/or soy) in Goto-Kakizaki rats with glucose tolerance test; type: in vivo, rat; settings: 4 weeks, p<0.05
Description: Four test diets (A: Standard carbohydrate rich laboratory animal diet (Altromin); n=12 (Alt). B: Altromin supplemented with stevioside (Altromin+Stevioside); n=12; (Alt+Ste). C: Soy plus 20% Altromin; n=12; (Soy). D: Soy plus 20% Altromin plus stevioside; n=12; (Soy+Ste)) were administered for four weeks to four groups of adult rats. Each experimental group consisted of twelve female Goto-Kakizaki wish an age of 9 weeks. The rats received the stevioside (0.025 g/kg body weight/day) with the drinking water. […] Plasma concentrations of glucose, insulin, and glucagon were measured during the glucose tolerance test. Immediately before the glucose tolerance test fasting levels of triglycerides and cholesterol were determined. Concomitantly, the systolic blood pressure was measured using a tail cuff. (Plasma glucose was measured using MPR 3, 166 391, Glucose/GOD-PAP Method from Boehringer Mannheim) (Plasma insulin was measured using Sensitive Rat Insulin RIA, Cat #SRI-13K from Linco) (Plasma glucagon was measured using Glucagon RIA. Cat #GL-32K from Linco) (Blood pressure was measured using TSE Non-Invasive Blood Pressure Monitoring System from Technical Scientific Equipment GmbK) (Plasma cholesterol was measured GOD-PAP from Roche and triglycerides was measured using GHOD-PAP from Roche)

GK rats [13] = test: blood pressure during 6 weeks treatment of GK rats with stevioside; type: in vivo, rat; settings: 0.025 g/kg/24 h in drinking water, detectable after 2 weeks, then stable
Description: GK rats were treated with stevioside 0.025 g/kg body weight/24 h for 6 weeks. Stevioside was administered in the drinking water. GK rats receiving drinking water with 0.111 g D-glucose/kg body weight/24 h served as controls. Systolic (FIG. 6a, control: O-O series, stevioside-treated: (2)-(2) series) and diastolic (FIG. 6b, control: O-O series, stevioside-treated: (2)-(2) series) blood pressures were measured on the tail.

[14] = rats; cited from earlier work
[15] = isolated perfused rat liver; cited from earlier work

Structure (SMILES): C=C1C[C@@]23CC[C@H]4[C@@](C)(CCC[C@@]4(C)C(=O)O)[C@@H]2CC[C@]1(O)C3 [steviol]
- effect when administered intravenously to rats (rats [1]): anti-hyperglycemic, glucagonostatic and insulinotropic effect
- LD50 (mice): higher than 15 g/kg body weight
- mutagenic effect [2]: no mutagenic effect
- LD50 (hamsters [3]; hamster, in vivo): 5-6 g/kg body weight
- finding that accompanied lethality (hamsters [3]; hamsters, correlated to increases in blood urea nitrogen and creatinine): degeneration of the proximal tubular cells
- stimulation of insulin secretion compared with stevioside (isolated mouse islets): to a greater extent
- maximal stimulatory dose (isolated mouse islets): 10^−6 mol/l
- glucose-stimulated insulin secretion (isolated mouse islets): capable of potentiating glucose-stimulated insulin secretion
- LD50 (rats [4]): higher than 15 g/kg body weight
- mutagenicity [5]: dose-related positive responses in some mutagenicity test

Structure (SMILES): C=C1C[C@@]23CC[C@H]4[C@@](C)(CCC[C@@]4(C)C(=O)O[C@@H]4O[C@H](CO)[C@@H](O)[C@H](O)[C@H]4O)[C@@H]2CC[C@]1(O[C@@H]1O[C@H](CO)[C@@H](O)[C@H](O)[C@H]1O[C@@H]1O[C@H](CO)[C@@H](O)[C@H](O)[C@H]1O)C3 [stevioside]
- effect when administered intravenously to rats (rats [1]): anti-hyperglycemic, glucagonostatic and insulinotropic effect
- fall in the systolic blood pressure ([6]; 200 mg/kg intravenously (maximum hypotensive effect)): only small
- heart rate ([6]; intravenous stevioside): Neither the heart rate nor the plasma catecholamines were significantly changed
- plasma catecholamines ([6]; intravenous stevioside): Neither the heart rate nor the plasma catecholamines were significantly changed
- hypoglycemia [7]: did not cause any hypoglycemia
- mutagenic effect [2]: no mutagenic effect
- plasma glucagon (GK rats [8]): suppressed
- time at which a significant decrease of plasma glucose was observed (GK rats [9]): 30 min
- blood glucose response to intravenous glucose (GK rats [9]; 2 hours): inhibited blood glucose responses; also recorded: diminished glucose response
- insulin response (GK rats [9]; compared to the Wistar rat): pronounced increase in the insulin response
- maximal stimulatory dose (isolated mouse islets): 10^−3 mol/l
- glucose-stimulated insulin secretion (isolated mouse islets): capable of potentiating glucose-stimulated insulin secretion
- effect on growth or reproduction (hamsters [10]): no effect on growth or reproduction
- mutagenicity [5]: not mutagenic
- insulin output [11]: significant increase in insulin output
- reduction of the postprandial blood glucose response compared to placebo ([12]; mean±SEM, p<0.004): 18±5%
- absolute IAUC of postprandial blood glucose ([12]; mean±SEM, p<0.02 vs placebo): 522±64 mmol/l×240 min
- postprandial glucagon like peptide-1 (GLP-1) levels ([12]; mean±SEM, p<0.045 vs placebo): 1529±296
- postprandial glucagon levels ([12]; mean±SEM, p=0.02 vs placebo): 281±33
- insulin response (IAUC) ([12]; p=0.09, not statistically significant): tended to stimulate the insulin response
- carcinogenicity (F344 rats): not carcinogenic
- suppression of the systolic blood pressure (Δ), stevioside in combination with Altromin (GK-rats): −28 mmHg
- suppression of the systolic blood pressure (Δ), stevioside in combination with soy (GK-rats): −21 mmHg
- decrease in the blood pressure (systolic and diastolic, tail) (GK rats [13]): 10-15%
- route of excretion [14]: excreted by the urine
- metabolism [15]: not metabolised

Reference: patent US9636314B2, “Medicament for treatment of non-insulin dependent diabetes mellitus, hypertension and/or metabolic syndrome” (Stevia Limited, priority 2001, dated 2017)
